Results as given in the NIST ThermoML archive (doi:10.1016/j.jct.2008.01.001).
Numbers after ± are expanded uncertainties.

Experiments:
[1] = Liquid; for mass density: 273.15 K, 101.33 kPa; for Normal boiling temperature: Ebulliometric method (Recirculating still)
[2] = refractive index (Na D-line) (dimensionless); settings: 273.15 K; 101.33 kPa; Liquid; Standard Abbe refractometry

mass density [1] | Normal boiling temperature [1] | refractive index [2] | SMILES
832.3 ± 1.2 kg/m3 | 185.1 ± 0.02 °C | – | CCCCC(CC)CO (stereo not given) [2-ethyl-1-hexanol]
992.7 ± 0.4 kg/m3 | 141.0 ± 0.02 °C | 1.3811 ± 0.0004 | CCC(=O)O [propanoic acid]
